Measurements published in paper PMC7755165 (Xenobiotica; the fate of foreign compounds in biological …, 2019).
Read-outs that look alike come from different tables or passages of the source.

Key:
[1] = test system: single-donor human liver microsomes; conditions: donor (CYP2C19*1/*1); (+)-N-3-benzylnirvanol 5 μM; meperidine 10 μM, 10 min
recombinant CYP2C19 = recombinant CYP2C19 (Homo sapiens, UniProt P33261); conditions: ref Ramírez et al., (2004); cited from earlier work
CYP2B6 [2] = target: T1, CYP2B6 (Homo sapiens, UniProt P20813); test: in vitro; conditions: recombinant CYP2B6, pH 7.4
T1 sequence (P20813 1-491): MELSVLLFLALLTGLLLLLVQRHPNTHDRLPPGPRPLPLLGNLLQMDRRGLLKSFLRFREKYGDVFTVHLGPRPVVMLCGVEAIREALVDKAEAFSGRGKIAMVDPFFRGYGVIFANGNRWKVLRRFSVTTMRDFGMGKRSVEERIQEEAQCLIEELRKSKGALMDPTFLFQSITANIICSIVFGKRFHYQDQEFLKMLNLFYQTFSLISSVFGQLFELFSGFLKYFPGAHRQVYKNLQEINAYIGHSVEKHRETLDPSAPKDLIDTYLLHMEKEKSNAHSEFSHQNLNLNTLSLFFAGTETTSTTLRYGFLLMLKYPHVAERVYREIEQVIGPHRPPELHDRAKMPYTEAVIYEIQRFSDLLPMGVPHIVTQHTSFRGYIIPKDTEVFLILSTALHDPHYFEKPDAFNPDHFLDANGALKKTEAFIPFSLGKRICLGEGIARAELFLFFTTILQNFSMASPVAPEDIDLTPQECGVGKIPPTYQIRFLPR

recombinant CYP3A4 [3] = target: T2, recombinant CYP3A4 (Homo sapiens, UniProt P08684); conditions: cited from earlier work
in vitro [4] = conditions: human, pooled human liver microsomes
CYP2B6 [5] = target: T1, CYP2B6; conditions: ref Ramírez et al., (2004); cited from earlier work
recombinant CYP3A4 [6] = target: T2, recombinant CYP3A4; test: Kinetic assay for meperidine N-demethylation by recombinant P450
[7] = cited from earlier work; for half-life: ref Clark et al., 1995
in vitro [8] = conditions: human, pooled human liver microsomes, pH 7.4

T2 sequence (P08684 2-503 limits assumed): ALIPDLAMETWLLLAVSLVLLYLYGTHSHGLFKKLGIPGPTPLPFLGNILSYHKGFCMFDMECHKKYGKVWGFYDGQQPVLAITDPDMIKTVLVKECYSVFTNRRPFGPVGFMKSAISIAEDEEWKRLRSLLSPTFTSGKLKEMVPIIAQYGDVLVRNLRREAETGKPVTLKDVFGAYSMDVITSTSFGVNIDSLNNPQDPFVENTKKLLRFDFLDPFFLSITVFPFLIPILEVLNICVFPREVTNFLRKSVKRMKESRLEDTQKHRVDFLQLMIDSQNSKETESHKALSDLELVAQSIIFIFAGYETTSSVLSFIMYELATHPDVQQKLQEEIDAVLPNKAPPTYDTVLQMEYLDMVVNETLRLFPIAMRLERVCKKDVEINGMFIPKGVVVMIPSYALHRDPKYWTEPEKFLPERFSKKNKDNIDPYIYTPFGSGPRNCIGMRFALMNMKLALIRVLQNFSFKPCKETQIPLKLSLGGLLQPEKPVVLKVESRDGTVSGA
recombinant CYP2C19, sequence (P33261 whole entry): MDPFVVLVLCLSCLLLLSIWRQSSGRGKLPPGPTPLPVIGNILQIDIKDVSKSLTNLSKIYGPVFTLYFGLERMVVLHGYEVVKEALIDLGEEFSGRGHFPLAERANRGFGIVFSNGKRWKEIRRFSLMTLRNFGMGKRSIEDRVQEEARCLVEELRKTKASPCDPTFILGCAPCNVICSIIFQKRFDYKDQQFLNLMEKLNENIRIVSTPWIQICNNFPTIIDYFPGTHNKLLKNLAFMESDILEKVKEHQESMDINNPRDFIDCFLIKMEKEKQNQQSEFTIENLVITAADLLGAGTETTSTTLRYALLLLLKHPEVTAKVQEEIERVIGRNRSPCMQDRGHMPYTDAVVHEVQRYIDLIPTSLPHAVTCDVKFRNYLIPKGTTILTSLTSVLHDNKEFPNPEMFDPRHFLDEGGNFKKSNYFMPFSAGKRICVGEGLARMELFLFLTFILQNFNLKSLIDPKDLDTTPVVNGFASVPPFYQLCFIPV

With CCC1(c2ccccc2)NC(=O)N(Cc2ccccc2)C1=O (single isomer, unassigned; (+)) [benzylnirvanol, (+)-N-3-benzylnirvanol] the “reduction of normeperidine formation compared to vehicle control” value [1] was under 20%.
For CCOC(=O)C1(c2ccccc2)CCN(C)CC1 [meperidine, Meperidine], the “relative P450 contribution for normeperidine formation” value (“relative P450 contribution” below) (recombinant CYP2C19) is given as 15%, the Km at 10 min (CYP2B6 [2]) is given as 262 ± 59 µM and the “relative P450 contribution” value (recombinant CYP3A4 [3]; CYP3A4, ref Ramírez et al., (2004)) is given as 28%. For the same compound, the “catalytic efficiency for meperidine N-demethylation” value (recombinant CYP3A4 [3]; recombinant CYP3A4, ref Ramirez et al. (2004)) was 0.07 min⁻¹ µM⁻¹, the Km (in vitro [4]) was 1600 µM and the “relative P450 contribution” value (CYP2B6 [5]) was 57%. The “Percent Contribution to meperidine N-demethylation” value (from here on “Percent Contribution”) (recombinant CYP3A4 [6]; Approach 1 (Rowland-Yeo et al. 2004 abundances)) was 16%, the “Percent Contribution” value (recombinant CYP3A4 [6]; Approach 2 (Achour et al. 2014 abundances)) was 9% and the “Percent Contribution” value (recombinant CYP3A4 [6]; Approach 3 (Rodrigues 1999 abundances)) was 5%. The “estimated percent P450 contribution (fm, P450) for meperidine N-demethylation” value (recombinant CYP3A4 [6]; range over three sets of reported P450 abundances) was 5–16%, the half-life ([7]; patients with normal liver function) was 2.5 to 4 h and the “parent compound excreted in urine” value ([7]; ref Burns et al., 1955, Yeh et al., 1981) was 5%. It also gave a Km at 10 min (in vitro [8]) of 622 ± 63 µM.
In the case of CCOC(=O)C1(c2ccccc2)CCNCC1 [normeperidine], the half-life ([7]; at therapeutic doses) is listed as 14 to 21 h and the half-life ([7]; patients with renal insufficiency) is listed as “exceed 34 hours”.
